According to ChEMBL document CHEMBL1201862, “PubChem BioAssay data set” (2004):
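Five concentrations, 48 hours, 96-well plates. GI50 marks 50% less growth.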 Activity calls are given as the source filed them. Cut-off read from the data, not from the text of the source: active = GI50 up to about 1.1 µM and inactive = higher. Peptide text beside a SMILES is read from it.

How the values were obtained:
Test in all cases: NCI-60 cell line screen, 48 h
[1] = tested on: HOP-18
[2] = tested on: DMS-273
[3] = tested on: LXFL 529
[4] = tested on: DLD-1
[5] = tested on: DMS-114
[6] = tested on: M19-MEL
[7] = tested on: SNB-78
[8] = tested on: RXF 631
[9] = tested on: XF498

SMILES | GI50 [1] | GI50 [2] | GI50 [3] | GI50 [4] | GI50 [5] | GI50 [6] | GI50 [7] | GI50 [8] | GI50 [9]
O=S1(=O)[C@H](c2ccccc2)c2c(-c3ccccc3)sc(-c3ccccc3)c2[C@@H]1c1ccccc1 | 77.1 µM (inactive) | > 100 µM (inactive) | 88.1 µM (inactive) | > 100 µM (inactive) | > 100 µM (inactive) | > 100 µM (inactive) | – | – | –
Cc1ccc(NC(=O)C(=O)C(C(=O)c2ccc3ccccc3c2)C2OC(=O)c3ccccc32)c(C)c1 (stereo not drawn) | 12.1 µM (inactive) | > 10 µM (inactive) | 8.09 µM (inactive) | 12.6 µM (inactive) | 7.6 µM (inactive) | 6.38 µM (inactive) | 8.73 µM (inactive) | 4.68 µM (inactive) | 0.485 µM (active)
O=Cc1c(O)c(C(=O)Nc2ccc3[nH]c(=O)[nH]c3c2)cc2ccccc12 | > 100 µM (inactive) | > 100 µM (inactive) | > 100 µM (inactive) | > 100 µM (inactive) | > 100 µM (inactive) | > 100 µM (inactive) | > 100 µM (inactive) | > 100 µM (inactive) | –
C=C(C)C12CC3CC(/C(=N/O)C(C1)/C3=N\O)[C@@]2(C)O (stereo partly drawn) | – | > 100 µM (inactive) | > 100 µM (inactive) | > 100 µM (inactive) | > 100 µM (inactive) | > 100 µM (inactive) | > 100 µM (inactive) | – | –
CCOC(=O)C(=O)Nc1c(C)cccc1C(C)(C)C | > 100 µM (inactive) | > 100 µM (inactive) | > 100 µM (inactive) | – | > 100 µM (inactive) | > 100 µM (inactive) | > 100 µM (inactive) | > 100 µM (inactive) | > 100 µM (inactive)
COc1cc(C(=O)C/C(CCCC(=O)Nc2ccccc2[N+](=O)[O-])=N/NC(=O)c2cc3ccccc3cc2O)ccc1O | 6.24 µM (inactive) | 15.6 µM (inactive) | – | 36.7 µM (inactive) | – | – | > 63.8 µM (inactive) | > 71.4 µM (inactive) | > 100 µM (inactive)
O=C(c1ccc(Cl)cc1)c1ccc(OCCSCCCCCCCCCCSCCOc2ccc(C(=O)c3ccc(Cl)cc3)cc2)cc1 | – | > 100 µM (inactive) | – | > 100 µM (inactive) | – | > 100 µM (inactive) | > 100 µM (inactive) | > 100 µM (inactive) | –
O=C1COc2cc(NC(=S)Nc3ccccc3)ccc2N1 | > 100 µM (inactive) | > 100 µM (inactive) | > 100 µM (inactive) | > 100 µM (inactive) | > 100 µM (inactive) | > 100 µM (inactive) | > 100 µM (inactive) | > 100 µM (inactive) | > 100 µM (inactive)
C/C(=C\CBr)CCC(Br)C(C)(C)Cl (stereo not drawn) | > 100 µM (inactive) | > 100 µM (inactive) | > 100 µM (inactive) | > 100 µM (inactive) | > 100 µM (inactive) | > 100 µM (inactive) | > 100 µM (inactive) | – | –
C=C1C(=O)OC2CCCCC3OC3C12 (stereo not drawn) | 11 µM (inactive) | 10.3 µM (inactive) | 7.26 µM (inactive) | 7.83 µM (inactive) | – | 11.6 µM (inactive) | 19.4 µM (inactive) | 6.19 µM (inactive) | 12 µM (inactive)
COc1cccc(/C=N\NC(=O)C(C)SC(C)C(=O)N/N=C/c2cccc(OC)c2)c1 (stereo not drawn) | – | 33 µM (inactive) | 33.9 µM (inactive) | 58.2 µM (inactive) | 19.4 µM (inactive) | > 63.4 µM (inactive) | 36 µM (inactive) | – | 53.1 µM (inactive)
Cc1cc(NC(=O)NC(=O)c2ccccc2N)ccc1Oc1ncc(Br)cn1 | 28.8 µM (inactive) | < 0.0316 µM (active) | < 0.0179 µM (active) | < 0.0161 µM (active) | < 0.01 µM (active) | 0.0231 µM (active) | – | – | 0.0334 µM (active)
CCOC(=O)c1cccc(=O)c(C(=O)OCC)c1 | – | 48.2 µM (inactive) | 38.3 µM (inactive) | 40 µM (inactive) | 46.8 µM (inactive) | 53.1 µM (inactive) | 57.3 µM (inactive) | 67 µM (inactive) | 46.1 µM (inactive)
CCCCc1c2c(nc3c1CC/C(=C\c1ccc([N+](=O)[O-])cc1)C3=O)CCCC2 | – | 1.76 µM (inactive) | 1.37 µM (inactive) | 1.75 µM (inactive) | 2.1 µM (inactive) | 2.29 µM (inactive) | 1.96 µM (inactive) | – | –
CC(C)(C)c1cc(C#N)c2c(c1)C(=O)OC2(c1ccccc1)c1ccccc1C#N (stereo not drawn) | > 100 µM (inactive) | > 100 µM (inactive) | > 100 µM (inactive) | > 100 µM (inactive) | > 100 µM (inactive) | > 100 µM (inactive) | > 100 µM (inactive) | – | > 100 µM (inactive)
COc1cc(Oc2c(O)c(C)c(OC)c(C(C)=O)c2O)c(C(C)=O)c(O)c1C | – | 37.8 µM (inactive) | 49.5 µM (inactive) | 66.7 µM (inactive) | 47.5 µM (inactive) | 55.5 µM (inactive) | > 100 µM (inactive) | > 100 µM (inactive) | 59.6 µM (inactive)
O=C1NC2(CCCCC2)C2CCCCC=C12 (stereo not drawn) | > 100 µM (inactive) | > 100 µM (inactive) | > 100 µM (inactive) | > 100 µM (inactive) | > 100 µM (inactive) | > 100 µM (inactive) | > 100 µM (inactive) | – | > 100 µM (inactive)
O=C(NC1CCCCC1)c1c(O)[nH]c(=S)[nH]c1=O | > 100 µM (inactive) | – | > 100 µM (inactive) | > 100 µM (inactive) | 88.5 µM (inactive) | > 100 µM (inactive) | 99.1 µM (inactive) | > 100 µM (inactive) | –
COc1ccc(C(c2c(O)c3ccccc3n(C)c2=O)c2c(O)c3ccccc3n(C)c2=O)cc1 | 35.7 µM (inactive) | 31.2 µM (inactive) | 46.1 µM (inactive) | 37.5 µM (inactive) | 63.1 µM (inactive) | 98.4 µM (inactive) | 7.16 µM (inactive) | 21.3 µM (inactive) | 99.8 µM (inactive)
COc1cc(C(=O)C/C(CCC(=O)Nc2ccc(Cl)cc2C)=N/NC(=O)C(N)=O)ccc1O | > 100 µM (inactive) | > 100 µM (inactive) | > 100 µM (inactive) | > 100 µM (inactive) | > 100 µM (inactive) | > 100 µM (inactive) | > 100 µM (inactive) | – | > 100 µM (inactive)
O=C(O)C1OC(n2cc(F)c(=O)[nH]c2=O)CC1O (stereo not drawn) | 40.6 µM (inactive) | 12.9 µM (inactive) | 8.99 µM (inactive) | > 100 µM (inactive) | > 92.3 µM (inactive) | > 83.2 µM (inactive) | > 26.2 µM (inactive) | – | > 68.2 µM (inactive)
CCOc1ccc2c(c1)[n+]([O-])c(-c1ccc([N+](=O)[O-])cc1)c(N)[n+]2[O-] | > 100 µM (inactive) | > 100 µM (inactive) | > 100 µM (inactive) | > 100 µM (inactive) | 29.6 µM (inactive) | > 100 µM (inactive) | > 100 µM (inactive) | > 100 µM (inactive) | –
CNC(=O)OCc1cc2ccncc2c2c1[nH]c1ccccc12 | > 100 µM (inactive) | > 100 µM (inactive) | > 39.6 µM (inactive) | 5.89 µM (inactive) | > 100 µM (inactive) | > 100 µM (inactive) | > 72.6 µM (inactive) | – | > 45.1 µM (inactive)
CCOC(=O)c1ccc(N[C@@H]2c3cc4c(cc3C(C3=CC(=O)C(=O)C(OC)=C3)[C@H]3C(=O)OCC32)OCO4)cc1 (stereo partly drawn) | – | 1.12 µM (inactive) | 6.5 µM (inactive) | – | 1.79 µM (inactive) | 6.1 µM (inactive) | 8.69 µM (inactive) | 1.91 µM (inactive) | 1.48 µM (inactive)
CC(C)CC(NC(=O)C(CC(C)C)NC(=O)C(Cc1c[nH]cn1)NC(=O)C(C)NC(=O)C(NC(=O)C(C)NC(=O)C(Cc1c[nH]c2ccccc12)NC(=O)C(CCC(=O)O)NC(=O)C(N)Cc1ccccc1)C(C)C)C(N)=O (stereo not drawn) (H-FEWAVAHLL-NH2; configuration not given here) | > 100 µM (inactive) | > 100 µM (inactive) | > 100 µM (inactive) | > 100 µM (inactive) | > 100 µM (inactive) | > 100 µM (inactive) | > 100 µM (inactive) | > 100 µM (inactive) | > 100 µM (inactive)
